# Key:
# Experiment in all cases: B2 Post-Emergence Efficacy - Test 2
# Assay type in all cases: in vivo
# [1] = test system: Euphorbia hetrophylla (EPHHL); conditions: 15 days after application, 0-100 scale
# Outline: (§1)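 Herbicidal effect was rated visually from 0 (no damage) to 100 (complete kill) fifteen days after treatment. Seedlings had been raised for 12 days under controlled glasshouse conditions and then sprayed with the active ingredient formulated in IF50, diluted in water with 0.2% v/v Genapol X080 adjuvant.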
# Sinapis arvensis (SINAR) = conditions: 15 days after application, 0-100 scale
# Outline: as §1
# Avena fatua (AVEFA) = conditions: 15 days after application, 0-100 scale
# Outline: as §1
# Sida spinosa (SIDSP) = conditions: 15 days after application, 0-100 scale
# Outline: as §1
# Poa annua (POAAN) = conditions: 15 days after application, 0-100 scale
# Outline: as §1
# Brassica napus (BRSNN) = conditions: 15 days after application, 0-100 scale
# Outline: as §1
# Lolium perenne (LOLPE) = conditions: 15 days after application, 0-100 scale
# Outline: as §1
# [2] = test system: Panicum miliaceum (PANMI); conditions: 15 days after application, 0=no damage, 100=total kill
# Outline: as §1
# Sorghum bicolour (SORVU) = conditions: 15 days after application, 0=no damage, 100=total kill
# Outline: as §1
# Galium aparine (GALAP) = conditions: 15 days after application, 0-100 scale
# Outline: as §1
# Bromus tectorum (BROTE) = conditions: 15 days after application, 0-100 scale
# Outline: as §1
# Beta vulgaris (BEAVA) = conditions: 15 days after application, 0-100 scale
# Outline: as §1
# [3] = test system: Ipomoea hederacea (IPOHE); conditions: 15 days after application, 0-100 scale
# Outline: as §1
# Zea mays (ZEAMX) = conditions: 15 days after application; for Herbicidal activity ZEAMX: 0-100 scale; for Herbicidal activity on a 0-100 scale, ZEAMX: 0=no damage, 100=total kill
# Outline: as §1
# Eleisine indica (ELEIN) = conditions: 15 days after application, 0=no damage, 100=total kill
# Outline: as §1
# [4] = test system: Xanthium strumarium (XANST); conditions: 15 days after application, 0-100 scale
# Outline: as §1
# Glycine max (GLXMA) = conditions: 15 days after application; for Herbicidal activity GLXMA: 0-100 scale; for Herbicidal activity on a 0-100 scale, GLXMA: 0=no damage, 100=total kill
# Outline: as §1
smiles,measurement,setting,value
"Cc1nn(C)c(=O)c(-c2c(F)ccc(Cl)c2CCc2ccc(C#N)cc2)c1O [Compound 1.024, 4-[3-chloro-6-fluoro-2-[2-[4-(cyano)phenyl]ethyl]phenyl]-5-hydroxy-2,6-dimethyl-pyridazin-3-one]",Herbicidal activity EPHHL,[1]; 15 g/Ha,70
same,Herbicidal activity EPHHL,[1]; 30 g/Ha,90
same,Herbicidal activity EPHHL,[1]; 60 g/Ha,90
same,Herbicidal activity EPHHL,[1]; 125 g/Ha,90
same,Herbicidal activity EPHHL,[1]; 250 g/Ha,100
same,Herbicidal activity EPHHL,[1]; 500 g/Ha,100
same,Herbicidal activity SINAR,Sinapis arvensis (SINAR); 15 g/Ha,80
same,Herbicidal activity SINAR,Sinapis arvensis (SINAR); 30 g/Ha,80
same,Herbicidal activity SINAR,Sinapis arvensis (SINAR); 60 g/Ha,80
same,Herbicidal activity SINAR,Sinapis arvensis (SINAR); 250 g/Ha,90
same,Herbicidal activity SINAR,Sinapis arvensis (SINAR); 500 g/Ha,100
same,Herbicidal activity AVEFA,Avena fatua (AVEFA); 15 g/Ha,10
same,Herbicidal activity AVEFA,Avena fatua (AVEFA); 30 g/Ha,20
same,Herbicidal activity AVEFA,Avena fatua (AVEFA); 60 g/Ha,30
same,Herbicidal activity AVEFA,Avena fatua (AVEFA); 125 g/Ha,60
same,Herbicidal activity AVEFA,Avena fatua (AVEFA); 250 g/Ha,70
same,Herbicidal activity AVEFA,Avena fatua (AVEFA); 500 g/Ha,80
same,Herbicidal activity SIDSP,Sida spinosa (SIDSP); 15 g/Ha,80
same,Herbicidal activity SIDSP,Sida spinosa (SIDSP); 30 g/Ha,90
same,Herbicidal activity SIDSP,Sida spinosa (SIDSP); 60 g/Ha,90
same,Herbicidal activity SIDSP,Sida spinosa (SIDSP); 125 g/Ha,100
same,Herbicidal activity SIDSP,Sida spinosa (SIDSP); 250 g/Ha,100
same,Herbicidal activity SIDSP,Sida spinosa (SIDSP); 500 g/Ha,100
same,Herbicidal activity POAAN,Poa annua (POAAN); 15 g/Ha,10
same,Herbicidal activity POAAN,Poa annua (POAAN); 30 g/Ha,20
same,Herbicidal activity POAAN,Poa annua (POAAN); 60 g/Ha,30
same,Herbicidal activity POAAN,Poa annua (POAAN); 125 g/Ha,80
same,Herbicidal activity POAAN,Poa annua (POAAN); 250 g/Ha,80
same,Herbicidal activity POAAN,Poa annua (POAAN); 500 g/Ha,90
same,Herbicidal activity BRSNN,Brassica napus (BRSNN); 15 g/Ha,80
same,Herbicidal activity BRSNN,Brassica napus (BRSNN); 30 g/Ha,90
same,Herbicidal activity BRSNN,Brassica napus (BRSNN); 60 g/Ha,90
same,Herbicidal activity BRSNN,Brassica napus (BRSNN); 125 g/Ha,90
same,Herbicidal activity BRSNN,Brassica napus (BRSNN); 250 g/Ha,90
same,Herbicidal activity BRSNN,Brassica napus (BRSNN); 500 g/Ha,90
same,Herbicidal activity LOLPE,Lolium perenne (LOLPE); 15 g/Ha,10
same,Herbicidal activity LOLPE,Lolium perenne (LOLPE); 30 g/Ha,70
same,Herbicidal activity LOLPE,Lolium perenne (LOLPE); 60 g/Ha,70
same,Herbicidal activity LOLPE,Lolium perenne (LOLPE); 125 g/Ha,90
same,Herbicidal activity LOLPE,Lolium perenne (LOLPE); 250 g/Ha,90
same,Herbicidal activity LOLPE,Lolium perenne (LOLPE); 500 g/Ha,90
same,"Herbicidal activity on a 0-100 scale, PANMI",[2]; 15 g/Ha,0
same,"Herbicidal activity on a 0-100 scale, PANMI",[2]; 30 g/Ha,70
same,"Herbicidal activity on a 0-100 scale, PANMI",[2]; 60 g/Ha,80
same,"Herbicidal activity on a 0-100 scale, PANMI",[2]; 125 g/Ha,90
same,"Herbicidal activity on a 0-100 scale, PANMI",[2]; 250 g/Ha,90
same,"Herbicidal activity on a 0-100 scale, PANMI",[2]; 500 g/Ha,100
same,"Herbicidal activity on a 0-100 scale, SORVU",Sorghum bicolour (SORVU); 15 g/Ha,0
same,"Herbicidal activity on a 0-100 scale, SORVU",Sorghum bicolour (SORVU); 30 g/Ha,10
same,"Herbicidal activity on a 0-100 scale, SORVU",Sorghum bicolour (SORVU); 60 g/Ha,70
same,"Herbicidal activity on a 0-100 scale, SORVU",Sorghum bicolour (SORVU); 125 g/Ha,80
same,"Herbicidal activity on a 0-100 scale, SORVU",Sorghum bicolour (SORVU); 250 g/Ha,90
same,"Herbicidal activity on a 0-100 scale, SORVU",Sorghum bicolour (SORVU); 500 g/Ha,100
same,Herbicidal activity GALAP,Galium aparine (GALAP); 30 g/Ha,20
same,Herbicidal activity GALAP,Galium aparine (GALAP); 60 g/Ha,20
same,Herbicidal activity GALAP,Galium aparine (GALAP); 125 g/Ha,60
same,Herbicidal activity GALAP,Galium aparine (GALAP); 250 g/Ha,90
same,Herbicidal activity GALAP,Galium aparine (GALAP); 500 g/Ha,90
same,Herbicidal activity BROTE,Bromus tectorum (BROTE); 15 g/Ha,0
same,Herbicidal activity BROTE,Bromus tectorum (BROTE); 30 g/Ha,0
same,Herbicidal activity BROTE,Bromus tectorum (BROTE); 60 g/Ha,10
same,Herbicidal activity BROTE,Bromus tectorum (BROTE); 125 g/Ha,20
same,Herbicidal activity BROTE,Bromus tectorum (BROTE); 250 g/Ha,40
same,Herbicidal activity BROTE,Bromus tectorum (BROTE); 500 g/Ha,70
same,Herbicidal activity BEAVA,Beta vulgaris (BEAVA); 15 g/Ha,70
same,Herbicidal activity BEAVA,Beta vulgaris (BEAVA); 30 g/Ha,70
same,Herbicidal activity BEAVA,Beta vulgaris (BEAVA); 60 g/Ha,80
same,Herbicidal activity BEAVA,Beta vulgaris (BEAVA); 125 g/Ha,80
same,Herbicidal activity BEAVA,Beta vulgaris (BEAVA); 250 g/Ha,80
same,Herbicidal activity BEAVA,Beta vulgaris (BEAVA); 500 g/Ha,100
same,Herbicidal activity IPOHE,[3]; 30 g/Ha,100
same,Herbicidal activity IPOHE,[3]; 60 g/Ha,100
same,Herbicidal activity IPOHE,[3]; 125 g/Ha,100
same,Herbicidal activity IPOHE,[3]; 250 g/Ha,100
same,Herbicidal activity IPOHE,[3]; 500 g/Ha,100
same,Herbicidal activity ZEAMX,Zea mays (ZEAMX); 15 g/Ha,0
same,"Herbicidal activity on a 0-100 scale, ZEAMX",Zea mays (ZEAMX); 15 g/Ha,0
same,Herbicidal activity ZEAMX,Zea mays (ZEAMX); 30 g/Ha,10
same,"Herbicidal activity on a 0-100 scale, ZEAMX",Zea mays (ZEAMX); 30 g/Ha,10
same,Herbicidal activity ZEAMX,Zea mays (ZEAMX); 60 g/Ha,20
same,"Herbicidal activity on a 0-100 scale, ZEAMX",Zea mays (ZEAMX); 60 g/Ha,20
same,Herbicidal activity ZEAMX,Zea mays (ZEAMX); 125 g/Ha,40
same,"Herbicidal activity on a 0-100 scale, ZEAMX",Zea mays (ZEAMX); 125 g/Ha,40
same,Herbicidal activity ZEAMX,Zea mays (ZEAMX); 250 g/Ha,70
same,"Herbicidal activity on a 0-100 scale, ZEAMX",Zea mays (ZEAMX); 250 g/Ha,70
same,Herbicidal activity ZEAMX,Zea mays (ZEAMX); 500 g/Ha,100
same,"Herbicidal activity on a 0-100 scale, ZEAMX",Zea mays (ZEAMX); 500 g/Ha,100
same,"Herbicidal activity on a 0-100 scale, ELEIN",Eleisine indica (ELEIN); 15 g/Ha,0
same,"Herbicidal activity on a 0-100 scale, ELEIN",Eleisine indica (ELEIN); 30 g/Ha,40
same,"Herbicidal activity on a 0-100 scale, ELEIN",Eleisine indica (ELEIN); 60 g/Ha,40
same,"Herbicidal activity on a 0-100 scale, ELEIN",Eleisine indica (ELEIN); 125 g/Ha,60
same,"Herbicidal activity on a 0-100 scale, ELEIN",Eleisine indica (ELEIN); 250 g/Ha,80
same,"Herbicidal activity on a 0-100 scale, ELEIN",Eleisine indica (ELEIN); 500 g/Ha,80
same,Herbicidal activity XANST,[4]; 60 g/Ha,80
same,Herbicidal activity XANST,[4]; 125 g/Ha,80
same,Herbicidal activity XANST,[4]; 500 g/Ha,100
same,Herbicidal activity GLXMA,Glycine max (GLXMA); 15 g/Ha,70
same,"Herbicidal activity on a 0-100 scale, GLXMA",Glycine max (GLXMA); 15 g/Ha,70
same,Herbicidal activity GLXMA,Glycine max (GLXMA); 30 g/Ha,80
same,"Herbicidal activity on a 0-100 scale, GLXMA",Glycine max (GLXMA); 30 g/Ha,80
same,Herbicidal activity GLXMA,Glycine max (GLXMA); 60 g/Ha,90
same,"Herbicidal activity on a 0-100 scale, GLXMA",Glycine max (GLXMA); 60 g/Ha,90
same,Herbicidal activity GLXMA,Glycine max (GLXMA); 125 g/Ha,90
same,"Herbicidal activity on a 0-100 scale, GLXMA",Glycine max (GLXMA); 125 g/Ha,90
same,Herbicidal activity GLXMA,Glycine max (GLXMA); 250 g/Ha,100
same,"Herbicidal activity on a 0-100 scale, GLXMA",Glycine max (GLXMA); 250 g/Ha,100
same,Herbicidal activity GLXMA,Glycine max (GLXMA); 500 g/Ha,100
same,"Herbicidal activity on a 0-100 scale, GLXMA",Glycine max (GLXMA); 500 g/Ha,100

# From patent US20230301300A1, “HERBICIDAL COMPOSITIONS” (SYNGENTA CROP PROTECTION AG, priority 2020, published 2023)
